Data reported in patent publication US10208007B2, “Use of strigolactones and strigolactone analogs for treating proliferative conditions” (The State of Israel, Ministry of Agriculture & Rural …, priority 2011, dated 2019).
Where “and” joins values, the source holds several entries; their conditions need not be identical. Equal values may be shown once.

How the values were obtained:
MCF-7 mammospheres = experiment: Mammosphere formation; format: cell-based, human; settings: for Dose to block/inhibit mammosphere formation, fold lower than for monolayer growth: MCF-7
Procedure: Adherent cells were gently trypsinized, (0.05% trypsin/EDTA) washed twice in PBS and filtered through a […] cell sieve to obtain a single cell suspensions. Cells were diluted to a concentration of 10,000 cell/ml in serum-free phenol-red free MEBM (MEGM Bulletkit, Lonza) supplemented with 5 μg/ml bovine insulin, 20 ng/ml recombinant epidermal growth factor, 20 ng/ml basic fibroblast growth factor (Gibco), 1×B27 supplement, 0.5 μg/ml hydrocortisone (MEGM Bulletkit, Lonza). For MDA-MB-231 mammosphere cultures serum-free phenol red-free CnT-27 medium with growth additives (CellnTEC Advanced cell systems, Bern, Switzerland) was used as previously described. 0.1 ml was seeded per well of a Ultralow attachment 96 well plates. The following day the indicated doses of GR-24 (ppm) or vehicle alone (0.6% acetone f/c) were added. Media was replenished every 3-4 days. Self-renewal capacity of the mammospheres was determined by re-plating and producing further generations of mammospheres. Secondary mammospheres were cultivated by dissociation (trypsinization with gently vortexing) of 10-14 day old primary mammospheres. Single cell suspensions were obtained as described above.
Given the similar effects the other strigolactone analogs had on breast cancer cell line growth compared to GR-24, we anticipated that the strigolactone analogs would also have similar effects on MCF-7 primary mammosphere formation (FIG. 10): MCF-7 cells were seeded in MEBM media into low attachment, 96 well plates in duplicate at 3000 cells per well. The same day the indicated doses of strigolactone analogs were added. After 7 days representative images were taken. […] Like GR-24, the doses required to inhibit mammosphere formation are lower than that required to inhibit proliferation in monolayer cultures (5 fold lower; ST-362 and MEB-55, 3 fold lower; ST-357). To determine if the sensitivity to strigolactone analogs treatments was specific to mammosphere formation or whether it extended to the integrity and survival of mature mammospheres, MCF-7 mammospheres were grown in the absence of strigolactone analogs and after 7 days (or once mammospheres had reached a mean diameter of over […]), strigolactone analogs were added to the growth media (FIG. 10) at the indicated doses. MCF-7 cells were seeded in MEBM media into low attachment, 96 well plates in duplicate at 3000 cells per well and primary mammospheres left to grow for 7 days. At which time the indicated doses of strigolactone analogs were added to the media. FIG. 11A is a representative image of mammospheres treated with 5 ppm concentrations, showing dissociation after 2 days of exposure to strigolactone analogs. […] Following […] treatment, mammospheres were monitored visually after 24 and 48 hours. No changes were observed following 24 hours of strigolactone analogs treatment. […] At 5 ppm concentrations EG-5, EG-9C, ST-357, ST-362 and MEB-55 reduce mammosphere numbers from 86.7+6.8 (vehicle control) to 23+5, 38+6.2, 6+2, 8.3+3.5 and 9.3+1.5%, respectively. At 2.5 ppm concentrations, mammosphere numbers were reduced to 35+6.9 (EG-5), 52+12.3 (EG-9C), 22+8.5 (ST-357), 6+1.7 (ST-362) and 20.7+8.6 (MEB-55). […] XTT viability assays were also carried out on dissociated mammospheres. At concentrations of 5 ppm, EG-5, ST-362 and MEB-55 reduced viability to 3.7+0.5, 25.5+8.8 and 4.6+1.1% respectively.

MCF10A = settings: 3 days
Procedure: Results are presented as Average±SD of replicate analyses and are either representative of, or inclusive of at least two independent experiments. Statistical analyses were performed using student's t-test (2-tailed, paired) versus vehicle controls and are regarded as being significant when P<0.05(*). Higher powers (p<0.01, p<0.001) are also employed and indicated in each figure legend. IC50 doses for strigolactone analogs were calculated by interpolation of the sigmoidal dose response curves (Graphpad Prism 4.0 software). Briefly, linear regression was performed between relevant y-axis data points and interpolation calculated for x-axis unknowns.
Cells were seeded into a 96 well plates at 1500 cells per well (MCF-10, PC3, DU145, MDA-MB-231, MDA-MB-436, HT-29, SW480), 1000 cells per well (K562) or 4000 cells per well (MCF-7, HCT116) in triplicate in normal growing media (with the exception of K562, a non-adherent leukemic cell line which was seeded in phenol-free DMEM supplemented with 10% charcoal-stripped FBS). The following day media was replaced with phenol-free DMEM supplemented with 10% charcoal stripped FBS and the indicated final concentrations of strigolactone analog or vehicle (acetone) alone. Cells were incubated for 3 days, at which time XTT (2,3,-bis(2-methoxy-4-nitro-5-sulfophenyl)-5-[(phenylamino)-carbonyl]-2H-tetrazolium inner salt) reduction was used to quantify viability according to manufacturer's instruction (ATCC). Cells were incubated with XTT reagent for 2-3 hours at 37° C. in a humidified 5% CO2-95% air atmosphere. Absorbance was recorded by a photometer [sequence]luor Plus, Tecan (Salzburg, Austria) at 450 nm with 750 nm of reference wavelength. Cell survival was estimated from the equation: % cell survival=100×(At−Ac), where At and Ac are the absorbencies (450 nm) of the XTT colorimetric reaction (ATCC) in treated and control cultures respectively minus non-specific absorption measured at 750 nm. Absorbance of medium alone was also deducted from specific readings.
MCF-10A cells were included as an example of a non-tumorigenic line. XTT viability assays were carried out in the presence of the indicated doses of strigolactone analogs following 3 days of treatment. Resulting differences in absorbance readings following strigolactone analogs treatment reflect changes in proliferation and cell survival (FIG. 7A-C): Cells were seeded into 96 well plates in normal growing media. The following day media was replaced with phenol-free DMEM supplemented with 10% charcoal-stripped serum and the indicated doses of strigolactone analog or vehicle (cont.) alone. Viability was assayed after 3 days (XTT, ATCC).

U20S = experiment: XTT viability assay; format: cell-based, human; settings: 3 days
Procedure: (§1) Viability was assayed after 3 days (XTT, ATCC). IC50 concentrations are indicated (Table 3 above).

HCT116 = experiment: XTT viability assay; format: cell-based, human; settings: HCT116, 3 days
Procedure: as §1

LNCaP = experiment: XTT viability assay; format: cell-based, human; settings: 3 days
Procedure: as §1

PC3 = experiment: XTT viability assay; format: cell-based, human; settings: PC3, 3 days
Procedure: as §1

HT-29 = experiment: XTT viability assay; format: cell-based, human; settings: HT-29, 3 days
Procedure: as §1

SW480 = experiment: XTT viability assay; format: cell-based, human; settings: SW480, 3 days
Procedure: as §1

T47D = experiment: XTT viability assay; format: cell-based, human; settings: 3 days
Procedure: as §1

MCF-7 = experiment: XTT viability assay; format: cell-based, human; settings: MCF-7, 3 days
Procedure: as §1

DU145 = experiment: XTT viability assay; format: cell-based, human; settings: DU145, 3 days
Procedure: as §1

MDA-MB-231 = experiment: XTT viability assay; format: cell-based, human; settings: for IC50 at 72 h: MDA-MB-231, 3 days
Procedure: as §1

K562 = experiment: XTT viability assay; format: cell-based, human; settings: K562, 3 days
Procedure: as §1

U20S cells = experiment: XTT viability after timed exposure and strigolactone removal; settings: Homo sapiens
Procedure: At each time point the strigolactone analog was removed and the media was replaced with fresh growth media without strigolactone analog. […] In addition, viability of MDA-MB-231 cells was assessed after 24 hours by using an XTT assay (FIG. 9B). […] After 2, 4 or 24 hours the media was removed, cells were washed and media was replaced with growth media minus strigolactone analog.

Cyclin B1 = experiment: Western blot analysis of cyclin B1 levels; format: cell-based, human; settings: DU145, 24 hour treatment, then ALLN 4 or 8 hours
Saccharomyces cerevisiae = experiment: Yeast cell culture growth (OD); format: cell-based
Procedure: Saccharomyces cerevisiae and Candida oleophila yeast cells were grown overnight in a reach nutrient media at 28° C., at 150 rpm. Following, they were diluted to 0.4 OD in low nutrient media (Lily) and were divided into 96 wells. The cells were treated with GR-24 or ST-362, at the indicated concentrations. Cell culture growth was monitored every hour for 17 hours, at 28° C., with gentle shake before each OD read. OD was determined using fluorometer. Statistical differences between curves were analyzed using compareGrowthCurves function from the Statistical Modeling package, statmod (http://bioinf.wehi.edu.au/software/compareCurves/), significance was determined once P≤0.05.

| SMILES | Mammosphere formation (MCF-7 mammospheres; 5 ppm and above) | IC50 at 72 h (MCF10A) [ppm] | IC50 at 72 h (U20S) [ppm] | IC50 at 72 h (HCT116) [ppm] | IC50 at 72 h (LNCaP) [ppm] | IC50 at 72 h (PC3) | IC50 at 72 h (HT-29) [ppm] | IC50 at 72 h (SW480) [ppm] | IC50 at 72 h (T47D) [ppm] | IC50 at 72 h (MCF-7) [ppm] | IC50 at 72 h (DU145) [ppm] | IC50 at 72 h (MDA-MB-231) [ppm] | IC50 at 72 h (K562) [ppm] | Mammosphere formation (MCF-7 mammospheres; 1 ppm, p<0.01) | Mammosphere growth (MCF-7 mammospheres; 2.5 ppm) | Dose to block/inhibit mammosphere formation, fold lower than for monolayer growth (MCF-7 mammospheres) [fold] | viability at 10 ppm (U20S cells; 1 h) [%] | viability at 20 ppm (U20S cells; 1 h) [%] | viability at 10 ppm (U20S cells; 4 h) [%] | viability at 20 ppm (U20S cells; 4 h) [%] | also measured |
| --- | --- | --- | --- | --- | --- | --- | --- | --- | --- | --- | --- | --- | --- | --- | --- | --- | --- | --- | --- | --- | --- |
| CC1=CC(O/C=C2\Cc3c(n(C)c4ccccc34)C2=O)OC1=O (racemic) [EG-5, (±) (2E)-4-methyl-2-(4-methyl-5-oxo-2,5-dihydrofuran-2-yloxymethylene)-1,4-dihydro-2H-cyclopenta[b]indol-3-one] | completely block mammosphere formation | >15 | 3.9 | >15 | 13 | >15 ppm | >15 | >15 | 8.8 | 17.5 | >15 | 7.5 | >15 |  |  |  |  |  |  |  |  |
| CC1=CC(O/C=C2\Cc3c(n(C)c4cc(-c5cccs5)ccc34)C2=O)OC1=O (racemic) [MEB-55, (±) 2E-4-methyl-2-(4-methyl-5-oxo-2,5-dihydrofuran-2-yloxymethylene)-6-thiophen-2-yl-1,4-dihydro-2H-cyclopenta[b]indol-3-one] | completely block mammosphere formation | >15 | 2.7 | 12.8 | 12 | 8.8 ppm | 8.2 | 9.7 | 5.0 | >12.8 | 12.8 | 3.9 | 8.1 | significantly inhibit mammosphere formation | block mammosphere growth | 5 | 52 | 40 | 0 | 0 | Partial rescue of Cyclin B1 levels by ALLN (Cyclin B1): 1.3 fold |
| CC1=C[C@H](O/C=C2/C(=O)O[C@@H]3c4ccccc4C[C@H]23)OC1=O (relative stereo) [GR-24, (3aR*,8bS*,E)-3-(((R*)-4-methyl-5-oxo-2,5-dihydrofuran-2-yloxy)methylene)-3,3a,4,8b-tetrahydro-2H-indeno[1,2-b]furan-2-one] |  |  |  |  |  |  |  |  |  |  |  |  |  | severely attenuated |  | 5.7 |  |  |  |  | Cell culture growth (Saccharomyces cerevisiae; apparent 8 hours after application, 17 hours monitoring): significant reduction in cell culture growth; Mammosphere growth (MCF-7 mammospheres; 0.5 ppm, p<0.05): inhibited to a lesser degree |
| CC1=CC(O/C=C2/C(=O)c3c(c4cc(-c5cccs5)ccc4n3C)C2C)OC1=O (centres unmarked) [ST-357, (2E)-1,4-dimethyl-2-((4-methyl-5-oxo-2,5-dihydrofuran-2-yloxy)methylene)-7-(thiophen-2-yl)-1,2-dihydrocyclopenta[b]indol-3(4H)-one] | completely block mammosphere formation | >15 | 4.5 | >15 | 14.4 | 5.3 ppm and 5.4 ppm | >15 | >15 | >10 | >20 | >15 | 5.0 | >15 | significantly inhibit mammosphere formation | significant reduction in mammosphere growth | 3 | 80 | 77 | 62 | 10 |  |
| CC1=CC(O/C=C2/C(=O)c3c(c4cc(-c5scc6c5OCCO6)ccc4n3C)C2C)OC1=O (centres unmarked) [ST-362, (2E)-2-[(2,5-dihydro-4-methyl-5-oxofuran-2-yloxy)methylene]-1,2-dihydro-7-(2,3-dihydrothieno[3,4-b][1,4]dioxin-7-yl)-1,4-dimethyl-cyclopenta[b]indole-3-(4H)-one] | completely block mammosphere formation | >15 | 2.8 | 6.0 | 9.8 | >15 ppm | 7.3 | 2.9 | 8.6 | 8.1 | 7.5 | 2.9 | 4.3 | significantly inhibit mammosphere formation | block mammosphere growth | 5 |  |  |  |  | Concentrations giving a significant reduction in cell culture growth (Saccharomyces cerevisiae; apparent from the time of application): ≥ 0.1 µM; Partial rescue of Cyclin B1 levels by ALLN (Cyclin B1): 2 fold; IC20 concentration (MDA-MB-231; MDA-231, XTT): 1.5 ppm |
